These results are taken from patent US9801845B2 (priority 2015, dated 2017).

Assay [1] has as its system C. perfringens. It is filed as cell-based, Clostridium perfringens. The following applies: TSA-thioglycolate broth, 250 μL of 2% w/v, overnight, anaerobic.
Assay [2] deals with C. perfringens. It is filed as cell-based, Clostridium perfringens. The following applies: FIG. 2.

Positions of bridges follow the written chain, without caps; N, C: chain ends. Non-standard residues stand in square brackets, D forms with d. Residues, ends and D or L forms follow the SMILES beside them. *: point of attachment. Ileψ(thiazoline)Cys = CC[C@H](C)[C@H](N)C1=N[C@H](C(=O)*)CS1; dOrn = NCCC[C@@H](N)C(=O)O

As for `CC[C@H](C)[C@H](N)C1=N[C@H](C(=O)N[C@@H](CC(C)C)C(=O)N[C@H](CCC(=O)O)C(=O)N[C@H](C(=O)N[C@H]2CCCCNC(=O)[C@H](CC(N)=O)NC(=O)[C@@H](CC(=O)O)NC(=O)[C@H](Cc3cnc[nH]3)NC(=O)[C@@H](Cc3ccccc3)NC(=O)[C@H]([C@@H](C)CC)NC(=O)[C@@H](CCCN)NC2=O)[C@@H](C)CC)CS1` [Bacitracin] ({Ileψ(thiazoline)Cys}-L[dE]IK[dOrn]I[dF]H[dD]N; lactam 4-C), the “inhibition of C. perfringens growth (counts)” value in the assay with C. perfringens [1] is “complete inhibition”. In addition, the “inhibition of the growth of C. perfringens, crop assay” value in the assay on C. perfringens [2] (crop supernatant pH 5.34, 250 μL of 2% w/v, 24 h) is recorded as “complete inhibition”. Moreover, the “reduction of C. perfringens, ileal assay (in words)” value with C. perfringens [2] (ileal supernatant pH 7.01, 24 h) was “almost complete reduction”. In the assay on C. perfringens [2] (proventricular supernatant pH 2.54, 250 μL of 2% w/v, 24 h), the “effectiveness against C. perfringens, proventricular assay” value was “not effective”.
